Reference: ChEMBL document CHEMBL1201862, “PubChem BioAssay data set” (2004)
One block for each compound: values may come before it. Activity calls are given as the source filed them.

Columns and labels:
[1] = target: 72 kDa type IV collagenase (Homo sapiens, UniProt P08253); assay: Dose Response validation of uHTS RPN11 inhibitor hits using a MMP-2 Fluorescence assay.; assay type: functional
[2] = target: Luciferin 4-monooxygenase (Photinus pyralis, UniProt P08659); assay: inhibition of purified Photinus pyralis luciferase – biochemical, luminescence, dose response (AID 1891)
Prothrombin = Prothrombin (Bos taurus, UniProt P00735); assay: thrombin protease inhibitors – biochemical, fluorescence polarization, uHTS hits, dose response (AID 602369); assay type: functional
[3] = Luminescence Cell-Based Dose Confirmation HTS to Identify Inhibitors of Platelet Dense Granule Release. [Related pubchem assays: 1663 (Primary HTS), 1678 (Summary of Project)]; assay type: functional
[4] = target: 26S proteasome non-ATPase regulatory subunit 14 (Homo sapiens, UniProt O00487); assay: inhibition of proteasome subunit RPN11 – biochemical, fluorescence polarization, uHTS hits, confirmation (AID 602368); assay type: functional
Large T antigen = Large T antigen (Simian virus 40, UniProt P03070); assay type: functional, Betapolyomavirus macacae;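 also: Confirmatory-stage PubChem screen for compounds that inhibit SV40 T antigen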
[5] = target: Glucose-6-phosphate 1-dehydrogenase (Homo sapiens, UniProt P11413); assay: inhibition of Homo sapiens G6PD, dose series – biochemical, fluorescence, selectivity assay for P. falciparum G6PD inhibitor project, dose response (AID 504792); assay type: functional
[6] = target: T1, RNA-binding protein pos-1 (Caenorhabditis elegans, UniProt G5EF15); assay: disruptors of C. elegans POS-1 RNA interaction – biochemical, fluorescence polarization, dose response (AID 1964);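 also: purified POS-1 fused to maltose binding protein made in E. coli; potency of compounds blocking POS-1 binding to fluorescent RNA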
T1 sequence (G5EF15 whole entry): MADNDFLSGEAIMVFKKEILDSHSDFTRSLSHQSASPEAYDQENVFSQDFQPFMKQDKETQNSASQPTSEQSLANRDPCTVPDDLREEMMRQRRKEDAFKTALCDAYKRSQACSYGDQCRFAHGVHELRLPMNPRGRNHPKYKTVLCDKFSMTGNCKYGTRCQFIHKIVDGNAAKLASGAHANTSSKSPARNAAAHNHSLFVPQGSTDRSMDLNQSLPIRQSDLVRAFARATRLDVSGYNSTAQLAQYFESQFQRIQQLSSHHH

[7] = target: T2, Zinc finger protein mex-5 (Caenorhabditis elegans, UniProt Q9XUB2); assay: potency of MEX-5 RNA-binding blockers – biochemical, C. elegans, fluorescence polarization, dose response (AID 1960)
T2 sequence (Q9XUB2 whole entry): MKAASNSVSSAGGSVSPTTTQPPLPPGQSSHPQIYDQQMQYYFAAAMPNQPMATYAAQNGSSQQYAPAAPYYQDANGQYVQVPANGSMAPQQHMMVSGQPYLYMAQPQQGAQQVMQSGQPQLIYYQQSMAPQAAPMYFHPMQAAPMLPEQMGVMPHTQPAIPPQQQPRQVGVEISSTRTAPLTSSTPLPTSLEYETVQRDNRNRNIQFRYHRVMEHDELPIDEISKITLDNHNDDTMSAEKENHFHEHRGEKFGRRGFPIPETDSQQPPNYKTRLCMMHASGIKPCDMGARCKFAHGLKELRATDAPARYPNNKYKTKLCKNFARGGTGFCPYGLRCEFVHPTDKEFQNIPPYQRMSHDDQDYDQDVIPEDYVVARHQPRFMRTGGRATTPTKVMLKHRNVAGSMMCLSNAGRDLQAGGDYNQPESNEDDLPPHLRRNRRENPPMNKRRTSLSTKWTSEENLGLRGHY

[8] = target: Intestinal-type alkaline phosphatase (Homo sapiens, UniProt P09923); assay: human intestinal alkaline phosphatase activators, dose response, biochemical, luminescence, uHTS hits (AID 463120); assay type: functional
[9] = target: T3, Apoptotic protease-activating factor 1 (Homo sapiens, UniProt O14727); assay type: functional
T3 sequence (O14727 whole entry): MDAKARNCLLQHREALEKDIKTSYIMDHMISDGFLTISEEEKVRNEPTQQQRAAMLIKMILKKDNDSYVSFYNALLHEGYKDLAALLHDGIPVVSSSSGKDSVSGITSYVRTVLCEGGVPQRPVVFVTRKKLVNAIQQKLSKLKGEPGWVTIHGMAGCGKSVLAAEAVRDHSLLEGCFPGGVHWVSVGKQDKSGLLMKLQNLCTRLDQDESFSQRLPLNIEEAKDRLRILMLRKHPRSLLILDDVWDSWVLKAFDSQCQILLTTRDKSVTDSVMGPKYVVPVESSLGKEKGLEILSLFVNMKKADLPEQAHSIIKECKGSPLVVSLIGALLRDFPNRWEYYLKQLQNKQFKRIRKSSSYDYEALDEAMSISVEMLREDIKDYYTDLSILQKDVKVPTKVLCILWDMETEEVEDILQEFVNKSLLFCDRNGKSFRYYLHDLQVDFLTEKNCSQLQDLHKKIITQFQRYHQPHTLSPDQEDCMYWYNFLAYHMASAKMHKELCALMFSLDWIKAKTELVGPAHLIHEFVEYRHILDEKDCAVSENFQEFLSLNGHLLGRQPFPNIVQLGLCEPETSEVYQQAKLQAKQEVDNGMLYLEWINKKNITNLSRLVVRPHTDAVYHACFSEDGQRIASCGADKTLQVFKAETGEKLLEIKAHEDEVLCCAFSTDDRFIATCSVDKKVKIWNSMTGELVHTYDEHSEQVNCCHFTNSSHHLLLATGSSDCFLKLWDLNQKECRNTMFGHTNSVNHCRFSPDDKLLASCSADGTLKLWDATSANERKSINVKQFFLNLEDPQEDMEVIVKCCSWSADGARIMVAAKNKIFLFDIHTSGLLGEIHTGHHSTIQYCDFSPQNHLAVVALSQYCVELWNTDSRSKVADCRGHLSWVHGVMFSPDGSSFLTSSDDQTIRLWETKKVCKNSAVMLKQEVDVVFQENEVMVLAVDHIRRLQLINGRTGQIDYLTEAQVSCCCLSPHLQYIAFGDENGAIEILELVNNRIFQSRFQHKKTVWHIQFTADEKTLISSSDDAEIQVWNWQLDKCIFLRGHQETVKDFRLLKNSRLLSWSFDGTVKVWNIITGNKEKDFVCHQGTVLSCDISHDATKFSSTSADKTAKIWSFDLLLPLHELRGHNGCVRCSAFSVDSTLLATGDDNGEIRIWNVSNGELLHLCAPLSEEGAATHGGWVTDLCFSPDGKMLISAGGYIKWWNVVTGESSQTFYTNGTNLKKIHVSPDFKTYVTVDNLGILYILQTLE

Coagulation factor XII = target: T4, Coagulation factor XII (Homo sapiens, UniProt P00748); assay type: functional;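 also: activated factor XIIa alpha cleaving a fluorogenic AMC peptide substrate; inhibitor potency from loss of enzyme activity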
T4 sequence (P00748 whole entry): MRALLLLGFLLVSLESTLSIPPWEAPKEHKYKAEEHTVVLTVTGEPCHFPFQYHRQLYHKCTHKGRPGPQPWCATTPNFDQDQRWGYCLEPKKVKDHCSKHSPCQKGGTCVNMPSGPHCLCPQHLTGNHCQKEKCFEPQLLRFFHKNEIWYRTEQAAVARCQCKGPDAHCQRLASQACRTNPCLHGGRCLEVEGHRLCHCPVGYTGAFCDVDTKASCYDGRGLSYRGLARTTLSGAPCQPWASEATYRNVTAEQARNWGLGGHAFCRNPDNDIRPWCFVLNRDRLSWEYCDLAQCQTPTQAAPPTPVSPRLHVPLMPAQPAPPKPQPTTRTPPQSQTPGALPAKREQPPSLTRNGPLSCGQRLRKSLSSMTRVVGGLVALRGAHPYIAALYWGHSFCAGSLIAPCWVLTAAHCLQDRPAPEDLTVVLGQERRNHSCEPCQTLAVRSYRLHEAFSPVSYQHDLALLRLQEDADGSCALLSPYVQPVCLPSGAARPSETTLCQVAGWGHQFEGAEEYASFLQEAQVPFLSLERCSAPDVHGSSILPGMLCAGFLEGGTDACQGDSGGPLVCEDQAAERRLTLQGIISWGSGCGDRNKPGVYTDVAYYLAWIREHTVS

Sequence of 72 kDa type IV collagenase (P08253 whole entry): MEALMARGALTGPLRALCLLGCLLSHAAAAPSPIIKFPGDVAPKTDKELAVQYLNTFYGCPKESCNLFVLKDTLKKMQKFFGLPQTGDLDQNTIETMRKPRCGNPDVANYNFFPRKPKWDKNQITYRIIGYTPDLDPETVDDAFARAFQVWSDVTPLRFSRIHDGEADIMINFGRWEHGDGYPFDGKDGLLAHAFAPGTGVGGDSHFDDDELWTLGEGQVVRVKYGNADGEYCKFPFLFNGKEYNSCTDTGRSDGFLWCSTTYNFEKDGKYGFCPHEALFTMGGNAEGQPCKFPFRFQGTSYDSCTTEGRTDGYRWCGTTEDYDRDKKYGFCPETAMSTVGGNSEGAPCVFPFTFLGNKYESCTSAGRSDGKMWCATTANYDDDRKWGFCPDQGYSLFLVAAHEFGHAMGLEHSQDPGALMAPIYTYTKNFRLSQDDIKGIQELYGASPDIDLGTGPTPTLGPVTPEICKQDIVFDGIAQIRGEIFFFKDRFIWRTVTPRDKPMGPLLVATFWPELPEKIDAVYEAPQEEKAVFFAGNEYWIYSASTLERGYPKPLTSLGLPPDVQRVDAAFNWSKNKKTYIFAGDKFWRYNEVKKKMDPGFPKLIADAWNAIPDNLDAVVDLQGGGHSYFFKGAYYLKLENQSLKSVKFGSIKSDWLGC
Sequence of 26S proteasome non-ATPase regulatory subunit 14 (O00487 whole entry): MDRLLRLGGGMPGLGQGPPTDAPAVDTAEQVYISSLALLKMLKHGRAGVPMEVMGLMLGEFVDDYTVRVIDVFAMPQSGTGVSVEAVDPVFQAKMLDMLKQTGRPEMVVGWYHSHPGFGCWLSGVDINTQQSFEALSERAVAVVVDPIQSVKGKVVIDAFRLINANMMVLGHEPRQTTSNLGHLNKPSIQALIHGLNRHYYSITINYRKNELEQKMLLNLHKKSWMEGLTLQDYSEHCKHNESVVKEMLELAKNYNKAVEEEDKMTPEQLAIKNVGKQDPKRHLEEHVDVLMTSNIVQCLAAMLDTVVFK
Sequence of Large T antigen (P03070 whole entry): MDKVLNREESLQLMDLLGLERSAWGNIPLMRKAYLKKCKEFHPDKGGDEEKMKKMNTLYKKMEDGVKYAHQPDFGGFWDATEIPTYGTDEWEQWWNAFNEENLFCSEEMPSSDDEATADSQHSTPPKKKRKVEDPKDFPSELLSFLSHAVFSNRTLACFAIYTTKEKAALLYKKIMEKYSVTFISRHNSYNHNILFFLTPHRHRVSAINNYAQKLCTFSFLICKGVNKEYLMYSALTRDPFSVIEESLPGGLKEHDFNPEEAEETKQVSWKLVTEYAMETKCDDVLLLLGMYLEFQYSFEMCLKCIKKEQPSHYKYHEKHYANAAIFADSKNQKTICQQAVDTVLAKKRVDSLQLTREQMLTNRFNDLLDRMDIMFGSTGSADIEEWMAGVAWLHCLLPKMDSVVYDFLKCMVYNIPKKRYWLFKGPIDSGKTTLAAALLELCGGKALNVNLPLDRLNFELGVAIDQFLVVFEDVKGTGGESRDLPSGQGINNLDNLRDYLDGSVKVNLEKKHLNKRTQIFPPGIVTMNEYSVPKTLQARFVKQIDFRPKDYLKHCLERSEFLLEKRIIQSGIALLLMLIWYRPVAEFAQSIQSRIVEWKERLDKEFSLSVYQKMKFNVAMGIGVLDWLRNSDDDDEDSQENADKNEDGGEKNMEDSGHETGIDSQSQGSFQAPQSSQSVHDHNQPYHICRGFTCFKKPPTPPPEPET
Sequence of Luciferin 4-monooxygenase (P08659 whole entry): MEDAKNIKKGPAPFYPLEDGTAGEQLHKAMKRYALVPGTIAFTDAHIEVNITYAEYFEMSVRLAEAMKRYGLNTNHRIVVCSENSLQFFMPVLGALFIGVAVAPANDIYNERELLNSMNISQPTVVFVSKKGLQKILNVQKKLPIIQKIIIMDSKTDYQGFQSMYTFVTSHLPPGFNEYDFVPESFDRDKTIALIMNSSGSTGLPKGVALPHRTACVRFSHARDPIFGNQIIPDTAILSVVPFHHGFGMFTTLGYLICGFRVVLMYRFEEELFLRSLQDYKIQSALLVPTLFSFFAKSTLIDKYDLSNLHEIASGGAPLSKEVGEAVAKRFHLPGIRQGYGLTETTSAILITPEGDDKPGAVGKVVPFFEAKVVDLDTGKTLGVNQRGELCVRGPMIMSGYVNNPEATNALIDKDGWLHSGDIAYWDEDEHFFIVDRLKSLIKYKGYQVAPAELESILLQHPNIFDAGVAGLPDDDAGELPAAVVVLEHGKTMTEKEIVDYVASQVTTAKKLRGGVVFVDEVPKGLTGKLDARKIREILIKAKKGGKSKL
Sequence of Glucose-6-phosphate 1-dehydrogenase (P11413 whole entry, the tested form may be a part): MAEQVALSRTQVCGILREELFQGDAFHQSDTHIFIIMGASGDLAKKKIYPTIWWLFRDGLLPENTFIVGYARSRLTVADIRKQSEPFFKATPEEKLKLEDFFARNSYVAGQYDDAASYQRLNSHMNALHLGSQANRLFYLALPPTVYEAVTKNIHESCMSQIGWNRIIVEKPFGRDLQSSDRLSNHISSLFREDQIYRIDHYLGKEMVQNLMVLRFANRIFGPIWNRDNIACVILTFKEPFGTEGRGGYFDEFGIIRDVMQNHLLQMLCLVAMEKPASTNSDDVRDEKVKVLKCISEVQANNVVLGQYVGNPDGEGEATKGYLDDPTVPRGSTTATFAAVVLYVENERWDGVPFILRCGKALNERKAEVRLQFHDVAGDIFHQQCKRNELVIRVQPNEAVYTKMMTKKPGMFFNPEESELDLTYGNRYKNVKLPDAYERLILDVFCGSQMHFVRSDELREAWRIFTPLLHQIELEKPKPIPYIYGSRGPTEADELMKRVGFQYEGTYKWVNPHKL
Sequence of Intestinal-type alkaline phosphatase (P09923 whole entry): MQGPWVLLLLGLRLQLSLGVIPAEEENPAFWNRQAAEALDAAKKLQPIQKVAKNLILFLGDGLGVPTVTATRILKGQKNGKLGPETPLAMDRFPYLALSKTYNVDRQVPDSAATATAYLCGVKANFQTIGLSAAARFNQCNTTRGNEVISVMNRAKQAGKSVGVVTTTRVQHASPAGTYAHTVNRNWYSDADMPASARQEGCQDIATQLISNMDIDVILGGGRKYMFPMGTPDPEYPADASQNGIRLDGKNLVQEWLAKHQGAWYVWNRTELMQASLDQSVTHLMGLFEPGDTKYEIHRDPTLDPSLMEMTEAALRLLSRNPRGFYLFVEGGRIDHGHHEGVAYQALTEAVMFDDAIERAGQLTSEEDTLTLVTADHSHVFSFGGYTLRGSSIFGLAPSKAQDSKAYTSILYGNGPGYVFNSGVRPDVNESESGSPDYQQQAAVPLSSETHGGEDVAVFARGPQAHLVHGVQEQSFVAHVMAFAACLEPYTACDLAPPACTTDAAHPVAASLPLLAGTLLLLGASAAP

Structure (SMILES): COC(=O)c1c(-c2cccnc2)csc1NC(=O)c1ccc2c(c1)OCO2
- IC50 [1]: > 100 µM (inactive)
- EC50 [2]: 0.77 µM (active)
- IC50 (Prothrombin): 96.1 µM (active)
- EC50 [3]: 8.11 µM (active)
- IC50 [4]: 37.5 µM (active)

Structure (SMILES): COc1cc(/C=C2\SC(c3ccc(C)cc3)=NC2=O)cc(OC)c1O
- IC50 (Large T antigen): 16.5 µM (active)
- IC50 [1]: 42.1 µM (active)
- IC50 [5]: 63.1 µM (inactive)
- IC50 (Prothrombin): 1.37 µM (active)
- IC50 [4]: 2.18 µM (active)

Continued, values first:

- EC50 [6]: > 300 µM (not active)
- EC50 [7]: 142 µM (active)
- EC50 [8]: 6.81 µM (active)
Structure (SMILES): Cc1ccc(-n2ncc3c(NNC(=O)c4ccco4)ncnc32)cc1C

- IC50 [9]: 31.9 µM (active)
Structure (SMILES): Cc1ccc(OCC(=O)N(Cc2nnc(-c3ccccc3Cl)o2)C2CC2)cc1C

- IC50 (Coagulation factor XII): > 50 µM (inactive)
Structure (SMILES): COC(=O)c1cccc(NS(=O)(=O)c2ccc(OC)c(OC)c2)c1C
